Assay results: ChEMBL document CHEMBL3826915, “Design and comparative anticonvulsant activity assessment of CNS-active alkyl-carbamoyl imidazole derivatives” (Bioorg Med Chem, 2016)
Activity calls are given as the source filed them. No cut-off for these calls is given here.

Columns and labels:
Mus musculus [1] = assay: Anticonvulsant activity in albino CF1 mouse assessed as protection against maximal electroshock-induced seizures at 100 mg/kg, ip after 0.5 hrs; format: functional, organism-based
Mus musculus [2] = assay: Anticonvulsant activity in albino CF1 mouse assessed as protection against maximal electroshock-induced seizures at 30 mg/kg, ip after 2 hrs; format: functional, organism-based
Mus musculus [3] = assay: Anticonvulsant activity in albino CF1 mouse assessed as protection against 32 mA current-induced seizure at 30 mg/kg, ip after 0.5 hrs by 6 Hz psychomotor test; format: functional, organism-based
Mus musculus [4] = assay: Anticonvulsant activity in albino CF1 mouse assessed as protection against 32 mA current-induced seizure at 30 mg/kg, ip after 2 hrs by 6 Hz psychomotor test; format: functional, organism-based
Mus musculus [5] = assay: Anticonvulsant activity in albino CF1 mouse assessed as protection against 44 mA current-induced seizure at 50 mg/kg, ip after 0.25 hrs by 6 Hz psychomotor test; format: functional, organism-based
Mus musculus [6] = assay: Anticonvulsant activity in albino CF1 mouse assessed as protection against 44 mA current-induced seizure at 50 mg/kg, ip after 1 hr by 6 Hz psychomotor test; format: functional, organism-based
Mus musculus [7] = assay: Anticonvulsant activity in albino CF1 mouse assessed as protection against 44 mA current-induced seizure at 50 mg/kg, ip after 2 hrs by 6 Hz psychomotor test; format: functional, organism-based
Mus musculus [8] = assay: Neurotoxicity in albino CF1 mouse assessed as behavioral impairment at 30 mg/kg, ip after 0.5 hrs by rotorod test; format: toxicity, organism-based; conditions: in vivo
Mus musculus [9] = assay: Neurotoxicity in albino CF1 mouse assessed as behavioral impairment at 300 mg/kg, ip after 0.5 hrs by rotorod test; format: toxicity, organism-based; conditions: in vivo
Mus musculus [10] = assay: Neurotoxicity in albino CF1 mouse assessed as behavioral impairment at 30 mg/kg, ip after 2 hrs by rotorod test; format: toxicity, organism-based; conditions: in vivo
Mus musculus [11] = assay: Neurotoxicity in albino CF1 mouse assessed as behavioral impairment at 100 mg/kg, ip after 2 hrs by rotorod test; format: toxicity, organism-based; conditions: in vivo
Mus musculus [12] = assay: Neurotoxicity in albino CF1 mouse assessed as behavioral impairment at 300 mg/kg, ip after 2 hrs by rotorod test; format: toxicity, organism-based; conditions: in vivo
Mus musculus [13] = assay: Neurotoxicity in albino CF1 mouse assessed as behavioral impairment at 50 mg/kg, ip after 0.25 hrs by rotorod test; format: toxicity, organism-based; conditions: in vivo
Mus musculus [14] = assay: Neurotoxicity in albino CF1 mouse assessed as behavioral impairment at 50 mg/kg, ip after 0.5 hrs by rotorod test; format: toxicity, organism-based; conditions: in vivo
Mus musculus [15] = assay: Neurotoxicity in albino CF1 mouse assessed as behavioral impairment at 50 mg/kg, ip after 1 hr by rotorod test; format: toxicity, organism-based; conditions: in vivo
Mus musculus [16] = assay: Neurotoxicity in albino CF1 mouse assessed as behavioral impairment at 50 mg/kg, ip after 2 hrs by rotorod test; format: toxicity, organism-based; conditions: in vivo
Rattus norvegicus [17] = assay: Anticonvulsant activity in albino Sprague-Dawley rat assessed as protection against maximal electroshock-induced seizures at 30 mg/kg, po after 1 hr; format: functional, organism-based
Rattus norvegicus [18] = assay: Anticonvulsant activity in albino Sprague-Dawley rat assessed as protection against maximal electroshock-induced seizures at 30 mg/kg, po after 2 hrs; format: functional, organism-based
Rattus norvegicus [19] = assay: Neurotoxicity in albino Sprague-Dawley rat assessed as behavioral impairment at 30 mg/kg, ip after 0.25 hrs by rotorod test; format: toxicity, organism-based; conditions: in vivo
Rattus norvegicus [20] = assay: Neurotoxicity in albino Sprague-Dawley rat assessed as behavioral impairment at 30 mg/kg, po after 0.25 hrs by rotorod test; format: toxicity, organism-based; conditions: in vivo
Rattus norvegicus [21] = assay: Neurotoxicity in albino Sprague-Dawley rat assessed as behavioral impairment at 30 mg/kg, ip after 0.5 hrs by rotorod test; format: toxicity, organism-based; conditions: in vivo
Rattus norvegicus [22] = assay: Neurotoxicity in albino Sprague-Dawley rat assessed as behavioral impairment at 30 mg/kg, po after 0.5 hrs by rotorod test; format: toxicity, organism-based; conditions: in vivo
Rattus norvegicus [23] = assay: Neurotoxicity in albino Sprague-Dawley rat assessed as behavioral impairment at 30 mg/kg, ip after 1 hr by rotorod test; format: toxicity, organism-based; conditions: in vivo
Rattus norvegicus [24] = assay: Neurotoxicity in albino Sprague-Dawley rat assessed as behavioral impairment at 30 mg/kg, po after 1 hr by rotorod test; format: toxicity, organism-based; conditions: in vivo
Rattus norvegicus [25] = assay: Neurotoxicity in albino Sprague-Dawley rat assessed as behavioral impairment at 30 mg/kg, ip after 2 hrs by rotorod test; format: toxicity, organism-based; conditions: in vivo
Rattus norvegicus [26] = assay: Neurotoxicity in albino Sprague-Dawley rat assessed as behavioral impairment at 30 mg/kg, po after 2 hrs by rotorod test; format: toxicity, organism-based; conditions: in vivo
Rattus norvegicus [27] = assay: Anticonvulsant activity in ip dosed albino Sprague-Dawley rat assessed as protection against maximal electroshock-induced seizures; format: functional
Rattus norvegicus [28] = assay: Anticonvulsant activity in ip dosed albino Sprague-Dawley rat assessed as protection against maximal electroshock-induced seizures by measuring time to peak effect; format: functional
[29] = Protective index, ratio of TD50 for neurotoxicity in ip dosed albino Sprague-Dawley rat to ED50 for anticonvulsant activity in ip dosed maximal electroshock-induced seizure albino Sprague-Dawley rat model; format: toxicity, organism-based; conditions: in vivo, read-out: Ratio TD50/ED50
Rattus norvegicus [30] = assay: Anticonvulsant activity in ip dosed albino Sprague-Dawley rat assessed as protection against subcutaneous metrazol-induced seizures; format: functional
[31] = Protective index, ratio of TD50 for neurotoxicity in ip dosed albino Sprague-Dawley rat to ED50 for anticonvulsant activity in ip dosed subcutaneous metrazol-induced seizure albino Sprague-Dawley rat model; format: toxicity, organism-based; conditions: in vivo, read-out: Ratio TD50/ED50
[32] = Neurotoxicity in ip dosed albino Sprague-Dawley rat assessed as motor impairment by rotorod test; format: toxicity, organism-based; conditions: in vivo
Rattus norvegicus [33] = assay: Anticonvulsant activity in ip dosed albino Sprague-Dawley rat assessed as protection against subcutaneous metrazol-induced seizures by measuring time to peak effect; format: functional
Mus musculus [34] = assay: Anticonvulsant activity in ip dosed albino CF1 mouse assessed as protection against maximal electroshock-induced seizures; format: functional
[35] = Protective index, ratio of TD50 for neurotoxicity in ip dosed albino CF1 mouse to ED50 for anticonvulsant activity in ip dosed maximal electroshock-induced seizure albino CF1 mouse model; format: toxicity, organism-based; conditions: in vivo, read-out: Ratio TD50/ED50
Mus musculus [36] = assay: Anticonvulsant activity in ip dosed albino CF1 mouse assessed as protection against subcutaneous metrazol-induced seizures; format: functional
[37] = Protective index, ratio of TD50 for neurotoxicity in ip dosed albino CF1 mouse to ED50 for anticonvulsant activity in ip dosed […] metrazol-induced seizure albino CF1 mouse model; format: toxicity, organism-based; conditions: in vivo, read-out: Ratio TD50/ED50
Mus musculus [38] = assay: Anticonvulsant activity in ip dosed albino CF1 mouse assessed as protection against maximal electroshock-induced seizures by measuring time to peak effect; format: functional
Mus musculus [39] = assay: Anticonvulsant activity in ip dosed albino CF1 mouse assessed as protection against subcutaneous metrazol-induced seizures by measuring time to peak effect; format: functional
Mus musculus [40] = assay: Anticonvulsant activity in ip dosed albino CF1 mouse assessed as protection against 6 Hz current-induced seizures by psychomotor test; format: functional
Mus musculus [41] = assay: Anticonvulsant activity in ip dosed albino CF1 mouse assessed as protection against 6 Hz current-induced seizure by measuring time to peak effect; format: functional
[42] = Neurotoxicity in ip dosed albino CF1 mouse assessed as motor impairment by rotorod test; format: toxicity, organism-based; conditions: in vivo

Compound: CCCC(COC(=O)NCCCn1ccnc1)C(C)CC (configuration not stated)
- Activity (Mus musculus [1]): Active
- Activity (Mus musculus [2]): inactive
- Activity (Mus musculus [3]): inactive
- Activity (Mus musculus [4]): inactive
- Activity (Mus musculus [5]): inactive
- Activity (Mus musculus [6]): inactive
- Activity (Mus musculus [7]): inactive
- Activity (Mus musculus [8]): Non-toxic
- Activity (Mus musculus [9]): Toxic
- Activity (Mus musculus [10]): Non-toxic
- Activity (Mus musculus [11]): Non-toxic
- Activity (Mus musculus [12]): Toxic
- Activity (Mus musculus [13]): Non-toxic
- Activity (Mus musculus [14]): Non-toxic
- Activity (Mus musculus [15]): Non-toxic
- Activity (Mus musculus [16]): Non-toxic
- Activity (Rattus norvegicus [17]): inactive
- Activity (Rattus norvegicus [18]): inactive
- Activity (Rattus norvegicus [19]): Non-toxic
- Activity (Rattus norvegicus [20]): Non-toxic
- Activity (Rattus norvegicus [21]): Non-toxic
- Activity (Rattus norvegicus [22]): Non-toxic
- Activity (Rattus norvegicus [23]): Non-toxic
- Activity (Rattus norvegicus [24]): Non-toxic
- Activity (Rattus norvegicus [25]): Non-toxic
- Activity (Rattus norvegicus [26]): Non-toxic
- ED50 (Rattus norvegicus [27]): 20 mg/kg
- Time (Rattus norvegicus [28]): 0.25 h
- selectivity ratio [29]: 4.8
- ED50 (Rattus norvegicus [30]): > 95 mg/kg
- selectivity ratio [31]: 1
- TD50 [32]: 96 mg/kg
- Time (Rattus norvegicus [33]): 0.25 h
- ED50 (Mus musculus [34]): 24 mg/kg
- selectivity ratio [35]: 2.8
- ED50 (Mus musculus [36]): > 100 mg/kg
- selectivity ratio [37]: 0.67
- Time (Mus musculus [38]): 0.5 h
- Time (Mus musculus [39]): 0.5 h
- ED50 (Mus musculus [40]): inactive
- Time (Mus musculus [41]): 0.5 h
- TD50 [42]: 67 mg/kg
